These results are taken from patent US8609173B2, “Compositions comprising sweetness enhancers and methods of making them” (Senomyx Inc., priority 2008, dated 2013).

Assay [1] relates to Panelists. Put plainly: Paired comparison taste test, strawberry yogurt. The class given is in vivo, Human. Here is the method:
Two strawberry yogurt compositions were prepared and then mixed with plain, nonfat yogurt. One strawberry fruit composition was sweetened with a mixture of sucrose and fructose, and a second strawberry fruit composition was sweetened with ⅓ less sucrose and 3 ppm of 3-(4-amino-2,2-dioxide-1H-benzo[c][1,2,6]thiadiazin-5-yloxy)-2′,2′-dimethyl-N-propylpropanamide. The compositions of the two fruit compositions are as follows:
Panelists evaluated two yogurt compositions in a paired comparison taste test procedure and were instructed to select the sweeter of the two samples. They perform a total of three paired comparison tests each containing the following samples: Strawberry Yogurt with 100% Sucrose vs. Strawberry Yogurt with 66.6% Sucrose+3 ppm (8.47 μM) 3-(4-amino-2,2-dioxide-1H-benzo[c][1,2,6]thiadiazin-5-yloxy)-2′,2′-dimethyl-N-propylpropanamide.
Strawberry Yogurt Preparation: 1000 g batches of finished strawberry yogurt was made by adding 16% (by weight) strawberry fruit prep to 84% (by weight) plain nonfat yogurt and mixing with a wire whip until homogenous, a minimum of five minutes. The Compound A was dissolved into a 0.10% concentration level in propylene glycol and then added to the strawberry yogurt and mixed with a wire whip until homogenous, about 5 minutes.

The test system of assay [2] is Panelists. Put plainly: Paired comparison human taste test, frosted flakes cereal. The class given is in vivo. As for the experimental part:
Frosted Flakes cereals were prepared using the following ingredients and evaluated for sweetness. The sugar frosting contained a reduced amount of sucrose (compared to the “100% sucrose” sugar coated flake cereal) and 15 ppm of 3-(4-amino-2,2-dioxide-1H-benzo[c][1,2,6]thiadiazin-5-yloxy)-2′,2′-dimethyl-N-propylpropanamide.
A Kitchen Aide mixer is equipped with a wire whip attachment and used for mixing sugar and tapioca dextrin. Mix for 5 minutes. Dissolve gum arabic in water using a magnetic stir bar and stir plate. Mix for 1 minute. Add the remaining dry ingredients and compound (if necessary) and heat until the solution reaches 230° F. for 1 minute. The compound was solubilized in ethanol to a 0.30% concentration level before adding to the syrup; this gave a better homogeneity throughout the syrup.
Place weighed amount of corn flakes in the tumbler. Add desired amount of syrup as soon as the syrup is ready. Tumble for 30 minutes while heating the flakes with a heat gun. Further dry the flakes in the convection oven for 200° F. for 50 minutes.
Panelists evaluated the two cereal samples in a paired comparison taste test procedure and were instructed to select the sweeter of the two samples.

Setting [3] is: 33% Reduced Sucrose Frosted Flakes + 15 ppm compound chosen, 14 panelists.

For `CCCNC(=O)C(C)(C)COc1cccc2c1C(N)=NS(=O)(=O)N2` [3-(4-amino-2,2-dioxide-1H-benzo[c][1,2,6]thiadiazin-5-yloxy)-2′,2′-dimethyl-N-propylpropanamide], the “Sample selected as sweeter by panelists, Total” value with Panelists [1] (Strawberry Yogurt with 4.5% Sucrose + 3 ppm (8.47 μM) compound chosen, vs 6.7% Sucrose, n = 72) is recorded as 33. Also, the “Sweetness comparison (conclusion)” value in the assay on Panelists [1] (Strawberry Yogurt with 66.6% Sucrose + 3 ppm (8.47 μM) compound vs 100% Sucrose, p>0.10) is on record as “not significantly different in sweetness”. Also, in the assay on Panelists [2] (setting [3]), the “Sample selected as sweeter by panelists, Test 1” value is reported as 6; the “Sample selected as sweeter by panelists, Test 2” value came out at 9; the “Sample selected as sweeter by panelists, Test 3” value is 9. For the same molecule, the “Sample selected as sweeter by panelists, Total” value in the assay on Panelists [2] (33% Reduced Sucrose Frosted Flakes + 15 ppm compound chosen, n = 42) was 24. In the assay on Panelists [2] (33% Reduced Sucrose Frosted Flakes + 15 ppm compound vs 100% Sucrose Frosted Flakes), the “Sweetness comparison (conclusion)” value is “not significantly different in sweetness”.
